Test results from patent US20220107328A1, “METHODS OF TREATING LIVER DISEASES” (Camp4 Therapeutics Corporation, priority 2018, published 2022).

How the values were obtained:
PNPLA3 mRNA [1] = test: qRT-PCR of PNPLA3 mRNA in compound-treated mouse hepatocytes; type: cell-based; details: for Relative PNPLA3 mRNA levels: mouse hepatocytes, 1 μM, normalized to ACTB
Experimental: Analysis of the fold changes in expression as measured by qRT-PCR were performed using the technique below. The control was DMSO, and the treatment was the selected compound (CPD). The internal control was GAPDH or B-Actin (or otherwise indicated), and the gene of interest is the target. First, the averages of the 4 conditions were calculated for normalization: DMSO:GAPDH, DMSO:Target, CPD: GAPDH, and CPD:Target. Next, the ΔCT of both control and treatment were calculated to normalize to internal control (GAPDH) using (DMSO:Target)−(DMSO:GAPDH)=ΔCT control and (CPD:Target)−(CPD: GAPDH)=ΔCT experimental. Then, the ΔΔCT was calculated by ΔCT experimental−ΔCT control. The Expression Fold Change (or Relative Quantification, abbreviated as RQ) was calculated by 2−(ΔΔCT) (2-fold expression change was shown by RNA-Seq results provided herein).
Compounds were tested at concentrations ranging from 0.01 μM to 50 μM. […] PNPLA3 levels were normalized to the level of a house keeping gene ACTB.

PNPLA3 mRNA [2] = test: qRT-PCR of PNPLA3 mRNA in human primary hepatic stellate cells; type: cell-based; details: for Primary Stellate cells PNPLA3 (fold change in mRNA expression): 3 μM, relative to GAPDH; for Relative PNPLA3 mRNA levels RQ: hepatic stellate cells
COL1A1 mRNA = test: qRT-PCR of COL1A1 mRNA in human primary hepatic stellate cells; type: cell-based; details: for Primary Stellate cells COL1A1 (fold change in mRNA expression): 3 μM, relative to GAPDH; for Relative COL1A1 mRNA levels RQ: hepatic stellate cells
PCSK9 mRNA = test: qRT-PCR of PCSK9 mRNA in primary hepatocytes; type: cell-based, human; details: donor 4178, 3 μM, relative to GUSB
PNPLA3 mRNA [3] = test: qRT-PCR of PNPLA3 mRNA in compound-treated primary human hepatocytes; details: for Primary Hepatocytes 4178 PNPLA3 (fold change in mRNA expression): donor 4178, 3 μM; for Primary Hepatocytes 4178 PNPLA3 (fold change in mRNA expression) / Primary Hepatocytes 4282 PNPLA3 (fold change in mRNA expression): relative to GUSB; for Primary Hepatocytes 4282 PNPLA3 (fold change in mRNA expression): donor 4282, 3 μM; for PNPLA3 mRNA expression level over time (in words) / PNPLA3 mRNA: 3 μM, normalized to GUSB; for PNPLA3 mRNA expression level over time (in words): 35 min to 20 hrs; for Relative PINPLA3 mRNA: hepatocytes; for PNPLA3 mRNA: time point not stated; for mrna remaining at 10 µM / mrna remaining at 1 µM: Homo sapiens, Hepatocyte
[4] = system: phosphorylated S6 (pS6/S6); test: Western blot of phosphorylated S6 in human hepatocytes; type: cell-based; details: 3 μM; for pS6/S6: human hepatocytes, mTORC1 pathway, time point not stated
Experimental: (§1) Levels of phosphorylated S6, AKT, and NDRG1 proteins were determined as compared to total S6, AKT, and NDRG1 protein. PNPLA3 mRNA expression was quantified and normalized to housekeeping gene GUSB.

[5] = system: phosphorylated AKT (pAKT/AKT); test: Western blot of phosphorylated AKT in human hepatocytes; type: cell-based; details: 3 μM; for pAKT (473)/AKT: human hepatocytes, mTORC2 pathway, time point not stated
Experimental: as §1

[6] = system: phosphorylated NDRG1 (pNDRG1/NDRG1); test: Western blot of phosphorylated NDRG1 in human hepatocytes; type: cell-based; details: 3 μM, mTORC2 pathway, time point not stated
Experimental: as §1

[7] = system: phosphorylated 4EBP1 (p4EBP1c (37/46)/4EBP1c); test: Western blot of phosphorylated 4EBP1 in human hepatocytes; type: cell-based; details: 3 μM, mTORC1 pathway, time point not stated
PNPLA3 expression = test: RNA-seq of compound-treated primary human hepatocytes; type: cell-based; details: PNPLA3 expression, RNA-seq
Experimental: Cryopreserved hepatocytes were cultured in plating media for 16 hours, transferred to maintenance media for 4 hours. Cultured on serum-free media for 2 hours, then a compound was added. The hepatocytes were maintained on the serum-free media for 16 hours prior to gene expression analysis.
Human hepatocytes cultured as described above were plated in 24-well format, adding 375,000 cells per well in a volume of 500 μl plating medium. Four hours before treatment, cells were washed with PBS and the medium was changed to either: fresh maintenance medium (complete) or modified maintenance medium.
Compound stocks were prepared at 1000× final concentration and added in a 2-step dilution to the medium to reduce risk of a compound precipitating out of solution when added to the cells, and to ensure reasonable pipetting volumes. One at a time, each compound was first diluted 10-fold in warm (about 37° C.) modified maintenance medium (initial dilution=ID), mixed by vortexing, and the ID was diluted 100-fold into the cell culture (e.g. 5.1 μl into 1 well of a 24-well plate containing 0.5 mL medium). The plate was mixed by carefully swirling and after all wells were treated and returned to the incubator overnight. If desired, separate plates/wells were treated with vehicle-only controls and/or positive controls. If using multi-well plates, controls were included on each plate. After about 18 hours, cells were harvested for further analysis, e.g., ChIP-seq, RNA-seq, ATAC-seq, etc.
The expression level of each gene was quantified with normalized FPKM (fragments per kilobase of exon per million mapped fragments). The differentially expressed genes were called using Cuffdiff v2.2.1 with q value<0.01 and log2 fold change>=1 or <=−1.
To identify small molecules that modulate PNPLA3, primary human hepatocytes were prepared as a monoculture, and at least one small molecule compound was applied to the cells.
RNA-seq was performed to determine the effects of the compounds on PNPLA3 expression in hepatocytes. Fold change was calculated by dividing the level of expression in the cell system that had been perturbed by the level of expression in an unperturbed system. Changes in expression having a p-value≤0.05 were considered significant.

[8] = mTOR pathway inhibitors, 10 μM, human hepatocytes, qRT-PCR, mean of three replicates ± standard deviation
[9] = 35 min to 20 hrs, relative to DMSO control

Structure (SMILES)	Relative PNPLA3 mRNA levels (PNPLA3 mRNA [1])	Primary Stellate cells PNPLA3 (fold change in mRNA expression) (PNPLA3 mRNA [2])	Relative PNPLA3 mRNA levels RQ (PNPLA3 mRNA [2]; 0.01 μM)	Relative PNPLA3 mRNA levels RQ (PNPLA3 mRNA [2]; 0.1 μM)	Relative PNPLA3 mRNA levels RQ (PNPLA3 mRNA [2]; 1 μM)	Relative PNPLA3 mRNA levels RQ (PNPLA3 mRNA [2]; 10 μM)	Primary Stellate cells COL1A1 (fold change in mRNA expression) (COL1A1 mRNA)	Relative COL1A1 mRNA levels RQ (COL1A1 mRNA; 0.01 μM)	Relative COL1A1 mRNA levels RQ (COL1A1 mRNA; 0.1 μM)	Relative COL1A1 mRNA levels RQ (COL1A1 mRNA; 1 μM)	Relative COL1A1 mRNA levels RQ (COL1A1 mRNA; 10 μM)	Primary Hepatocytes 4178 PCSK9 (fold change in mRNA expression) (PCSK9 mRNA)	Primary Hepatocytes 4178 PNPLA3 (fold change in mRNA expression) (PNPLA3 mRNA [3])	Primary Hepatocytes 4282 PNPLA3 (fold change in mRNA expression) (PNPLA3 mRNA [3])	Fold change (Log 2) vs untreated (PNPLA3 expression)	also measured
CCNC(=O)Nc1ccc(-c2nc(N3CCOC[C@@H]3C)c3c(n2)C(C)(C)S(=O)(=O)C3)cc1 [CZ415]	0.20 ± 0.11	0.37	0.87	0.47	0.31	0.35	0.59	1.01	0.86	0.28	0.27	0.66	0.60	0.70	–	Relative PNPLA3 mRNA levels (PNPLA3 mRNA [3]; [8]): 0.62 ± 0.07
COc1ccc(-c2ccc3c(N4CCOC[C@@H]4C)nc(N4CCOC[C@@H]4C)nc3n2)cc1CO [AZD-8055]	0.21 ± 0.11	0.36	0.38	0.44	0.45	0.39	0.46	0.71	0.58	0.35	0.27	0.68	–	–	–	Relative PNPLA3 mRNA levels (PNPLA3 mRNA [3]; [8]): 0.52 ± 0.16
CS(=O)(=O)N1CCc2c(-c3cnc(N)nc3)nc(N3CCOCC3)nc21 [CH5132799]	–	0.56	–	–	–	–	0.81	–	–	–	–	0.51	0.49	0.60	–	phosphorylated S6 (pS6/S6) over time (in words) [4, 9]: decreased at 1 hour; pS6/S6 [4]: 0.06; phosphorylated AKT (pAKT/AKT) over time (in words) [5, 9]: increased at 3 hours and decreased to pre-treatment levels at 4.5 hours; pAKT (473)/AKT [5]: 0.22; p-NDRG1/NDRG1 [6]: 0.47; p4EBP1c (37/46)#/4EBP1c [7]: 0.40; PNPLA3 mRNA expression level over time (in words) (PNPLA3 mRNA [3]): decreased levels of PNPLA3 expression after 3 hours; PNPLA3 mRNA expression level over time (in words) (PNPLA3 mRNA [3]; listed as CH51332799): down regulated PNPLA3 gene expression; Relative PINPLA3 mRNA (PNPLA3 mRNA [3]; 0.1 uM): 0.940; Relative PINPLA3 mRNA (PNPLA3 mRNA [3]; 0.3 uM): 0.870; Relative PINPLA3 mRNA (PNPLA3 mRNA [3]; 1 uM): 0.743; Relative PINPLA3 mRNA (PNPLA3 mRNA [3]; 3 uM): 0.491; PNPLA3 mRNA (PNPLA3 mRNA [3]; human hepatocytes): 0.511
COc1nc(N)nc2c1ncn2[C@@H]1O[C@H](COP(=O)(N[C@@H](C)C(=O)OCC(C)(C)C)Oc2cccc3ccccc23)[C@@H](O)[C@@]1(C)O (stereo partly drawn) [BMS-986094]	–	–	–	–	–	–	–	–	–	–	–	–	–	–	−0.69	–
CO[C@H]1C[C@@H]2CC[C@@H](C)[C@@](O)(O2)C(=O)C(=O)N2CCCC[C@H]2C(=O)O[C@H]([C@H](C)C[C@@H]2CC[C@@H](O)[C@H](OC)C2)CC(=O)[C@H](C)/C=C(\C)[C@@H](O)[C@@H](OC)C(=O)[C@H](C)C[C@H](C)/C=C/C=C/C=C/1C [rapamycin]	–	0.49	–	–	–	–	1.43	–	–	–	–	1.37	1.50	1.10	–	pS6/S6 [4]: 0.07; pAKT (473)/AKT [5]: 2.55; p-NDRG1/NDRG1 [6]: 1.76; p4EBP1c (37/46)#/4EBP1c [7]: 0.49; PNPLA3 mRNA (PNPLA3 mRNA [3]; human hepatocytes): 1.2
CC(C)n1nc(-c2cc3cc(O)ccc3[nH]2)c2c(N)ncnc21 [PP242, Torkinib]	0.44 ± 0.10	–	1.07	0.74	0.39	0.63	–	1.09	1.02	0.40	0.18	–	–	–	–	Relative PNPLA3 mRNA levels (PNPLA3 mRNA [3]): 0.50 ± 0.02
CN1C(=O)c2sccc2N(C)c2nc(Nc3ccc(S(N)(=O)=O)cc3)ncc21 [XMU-MP-1]	–	–	–	–	–	–	–	–	–	–	–	–	–	–	−0.66	–
NS(=O)(=O)C#Cc1ccccc1 [Pifithrin-μ, 2-Phenylethynesulfonamide]	–	–	–	–	–	–	–	–	–	–	–	–	–	–	−0.68	–
COc1cc(Nc2ncc(F)c(Nc3ccc4c(n3)N(COP(=O)([O-])[O-])C(=O)C(C)(C)O4)n2)cc(OC)c1OC.[Na+].[Na+] [R788, fostamatinib disodium hexahydrate]	–	–	–	–	–	–	–	–	–	–	–	–	–	–	−1.38	Relative PNPLA3 mRNA levels (PNPLA3 mRNA [3]; Syk pathway inhibitors, 10 μM, human hepatocytes, normalized to B2M, mean of three replicates ± standard deviation): 0.77 ± 0.02
CO[C@H]1C[C@@H]2CC[C@@H](C)[C@@](O)(O2)C(=O)C(=O)N2CCCC[C@H]2C(=O)O[C@H]([C@H](C)C[C@@H]2CC[C@@H](OCCO)[C@H](OC)C2)CC(=O)[C@H](C)/C=C(\C)[C@@H](O)[C@@H](OC)C(=O)[C@H](C)C[C@H](C)/C=C/C=C/C=C/1C [Everolimus]	0.31 ± 0.10	0.36	0.64	0.47	0.56	0.44	0.93	1.07	1.01	1.12	1.19	0.66	0.60	1.00	–	Relative PNPLA3 mRNA levels (PNPLA3 mRNA [3]; [8]): 0.98 ± 0.17
Cc1cccc(-c2nn3c(c2-c2ccnc4ccc(C(N)=O)cc24)CCC3)n1 [LY2157299 Galunisertib]	–	–	–	–	–	–	–	–	–	–	–	–	–	–	–	mrna remaining at 10 µM (PNPLA3 mRNA [1]; Hepatocyte, Mouse hepatocytes, 10 uM, read-out: PNPLA3 mRNA remaining after treatment compared to untreated cells): 102%; mrna remaining at 1 µM (PNPLA3 mRNA [2]; Human Stellate, 1 uM, read-out: PNPLA3 mRNA remaining after treatment compared to untreated cells): 65%; mrna remaining at 10 µM (PNPLA3 mRNA [2]; Human Stellate, 10 uM, read-out: PNPLA3 mRNA remaining after treatment compared to untreated cells): 100%; mrna remaining at 10 µM (PNPLA3 mRNA [3]; read-out: PNPLA3 mRNA remaining after treatment compared to untreated cells, H Hep Donor-1, 10 uM): 50%; mrna remaining at 10 µM (PNPLA3 mRNA [3]; read-out: PNPLA3 mRNA remaining after treatment compared to untreated cells, H Hep Donor-2, 10 uM): 70%; mrna remaining at 10 µM (PNPLA3 mRNA [3]; read-out: PNPLA3 mRNA remaining after treatment compared to untreated cells, H Hep Donor-3, 10 uM): 80%; mrna remaining at 1 µM (PNPLA3 mRNA [3]; read-out: PNPLA3 mRNA remaining after treatment compared to untreated cells, H Hep Donor-4, 1 uM): 75%; mrna remaining at 10 µM (PNPLA3 mRNA [3]; read-out: PNPLA3 mRNA remaining after treatment compared to untreated cells, H Hep Donor-4, 10 uM): 50%; mrna remaining at 1 µM (PNPLA3 mRNA [3]; read-out: PNPLA3 mRNA remaining after treatment compared to untreated cells, H Hep Donor-5, 1 uM): 55%; mrna remaining at 10 µM (PNPLA3 mRNA [3]; read-out: PNPLA3 mRNA remaining after treatment compared to untreated cells, H Hep Donor-5, 10 uM): 50%
